Source: the supplement of paper PMC10307832

Assays:
Experiment in all cases: relative viability (nuclei count vs DMSO), 5 days (fraction); higher = more cells survive
Tozasertib + Alpelisib = compound: Cc1cc(Nc2cc(N3CCN(C)CC3)nc(Sc3ccc(NC(=O)C4CC4)cc3)n2)n[nH]1 [Tozasertib] + Cc1nc(NC(=O)N2CCC[C@H]2C(N)=O)sc1-c1ccnc(C(C)(C)C(F)(F)F)c1 [Alpelisib] (partner 2 µM)
Procedure, shortened: (§1)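 Cells from lung cancer lines were seeded into 1536-well plates and, one day later, dosed by pin tool. Treatments were either a single drug or a fixed dose of an anchor drug with five library-drug doses (not always all listed) in √10 steps. After 5 days, nuclei were stained in a one-step fixation (final 0.05% Triton X-100, 1% formaldehyde, 1 ug/ml Hoechst) and counted on 4× images, and relative viability is the treated-to-vehicle nuclei ratio, as the median of duplicate plates.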

Tozasertib + Pictilisib = compound: Cc1cc(Nc2cc(N3CCN(C)CC3)nc(Sc3ccc(NC(=O)C4CC4)cc3)n2)n[nH]1 [Tozasertib] + CS(=O)(=O)N1CCN(Cc2cc3nc(-c4cccc5[nH]ncc45)nc(N4CCOCC4)c3s2)CC1 [Pictilisib] (partner 1 µM)
Procedure, shortened: as §1

Tozasertib + Bortezomib = compound: Cc1cc(Nc2cc(N3CCN(C)CC3)nc(Sc3ccc(NC(=O)C4CC4)cc3)n2)n[nH]1 [Tozasertib] + CC(C)C[C@H](NC(=O)[C@H](Cc1ccccc1)NC(=O)c1cnccn1)B(O)O [Bortezomib] (partner 0.002 µM)
Procedure, shortened: as §1

Tozasertib + Vorinostat = compound: Cc1cc(Nc2cc(N3CCN(C)CC3)nc(Sc3ccc(NC(=O)C4CC4)cc3)n2)n[nH]1 [Tozasertib] + O=C(CCCCCCC(=O)Nc1ccccc1)NO [Vorinostat] (partner 1 µM)
Procedure, shortened: as §1

Tozasertib + Linsitinib = compound: Cc1cc(Nc2cc(N3CCN(C)CC3)nc(Sc3ccc(NC(=O)C4CC4)cc3)n2)n[nH]1 [Tozasertib] + C[C@]1(O)C[C@@H](c2nc(-c3ccc4ccc(-c5ccccc5)nc4c3)c3c(N)nccn32)C1 [Linsitinib] (partner 1 µM)
Procedure, shortened: as §1

Cell Line	relative viability (Tozasertib + Alpelisib; first compound 0.004 µM)	relative viability (Tozasertib + Alpelisib; first compound 0.01265 µM)	relative viability (Tozasertib + Alpelisib; first compound 0.04 µM)	relative viability (Tozasertib + Alpelisib; first compound 0.1265 µM)	relative viability (Tozasertib + Pictilisib; first compound 0.004 µM)	relative viability (Tozasertib + Pictilisib; first compound 0.04 µM)	relative viability (Tozasertib + Pictilisib; first compound 0.1265 µM)	relative viability (Tozasertib + Bortezomib; first compound 0.004 µM)	relative viability (Tozasertib + Bortezomib; first compound 0.04 µM)	relative viability (Tozasertib + Bortezomib; first compound 0.1265 µM)	relative viability (Tozasertib + Vorinostat; first compound 0.004 µM)	relative viability (Tozasertib + Vorinostat; first compound 0.01265 µM)	relative viability (Tozasertib + Vorinostat; first compound 0.04 µM)	relative viability (Tozasertib + Vorinostat; first compound 0.1265 µM)	relative viability (Tozasertib + Linsitinib; first compound 0.004 µM)	relative viability (Tozasertib + Linsitinib; first compound 0.01265 µM)	relative viability (Tozasertib + Linsitinib; first compound 0.04 µM)	relative viability (Tozasertib + Pictilisib; first compound 0.01265 µM)	relative viability (Tozasertib + Bortezomib; first compound 0.01265 µM)	relative viability (Tozasertib + Linsitinib; first compound 0.1265 µM)
NCI-H647	1.43	0.915	1.06	0.371	0.442	0.476	0.171	1.17	1.16	0.447	0.729	0.377	0.384	0.172	0.854	1.33	1.22	–	–	–
NCI-H2023	0.645	0.541	0.539	0.628	0.306	0.296	0.0957	1.2	1.16	–	0.547	0.674	0.518	0.16	0.626	0.633	0.694	0.287	0.905	0.628
UMC-11	1.08	0.968	1.13	0.146	1.09	0.864	0.463	0.729	0.768	0.186	0.408	0.327	0.291	0.16	1.1	1.03	1.06	0.788	0.621	0.173
NCI-H520	0.945	0.844	0.889	0.864	0.315	0.288	0.186	0.555	0.852	0.255	0.814	0.747	0.575	0.224	1.07	0.952	0.978	0.268	0.585	0.472
NCI-H1734	0.656	0.64	–	0.469	0.528	0.518	0.401	0.833	1.07	0.464	0.711	0.741	0.649	0.245	0.894	0.938	0.938	0.494	0.998	0.616
HCC-44	0.779	0.773	0.836	–	0.596	0.67	0.409	0.866	1.04	0.786	1.09	1	1.04	0.901	0.653	0.606	0.691	0.603	0.942	0.546
HCC-366	0.37	0.476	0.558	0.13	0.106	0.122	0.0817	1.2	1.15	0.53	0.371	0.3	0.198	0.0431	0.766	0.6	0.755	0.135	1	0.101
NCI-H596	–	0.451	0.519	0.439	0.399	0.395	0.332	1.06	1.06	0.796	0.655	0.538	0.72	0.451	1.08	0.979	1.15	0.395	1.1	1.03
COR-L 105	–	1.29	1.32	0.739	0.434	0.412	0.267	0.879	0.943	0.291	0.998	–	0.936	0.512	1.15	1.15	1.02	0.511	0.815	0.868
NCI-H1993	0.63	0.795	0.727	0.519	–	–	0.632	1.06	1.33	0.805	0.754	0.824	1.11	0.408	0.8	0.668	0.649	0.759	1.05	0.616
NCI-H1651	0.922	1.01	0.886	1.03	0.655	0.634	0.377	1.05	0.979	0.885	0.603	0.56	–	0.361	1.19	0.899	0.972	0.62	0.851	0.923
LCLC-103H	0.817	0.895	0.952	0.994	0.694	0.634	0.498	1.04	1.2	0.974	0.842	0.863	0.743	0.544	1.07	1.03	0.987	0.568	1.14	1.34
HCC-15	0.942	0.841	–	0.728	0.702	0.802	0.585	0.999	–	0.851	0.86	0.735	0.923	–	0.893	0.778	0.882	0.653	–	0.734
HCC-827	1.03	0.931	1.06	0.954	0.872	1.14	0.918	1.03	1.06	0.839	0.87	0.835	0.89	0.584	1.02	1	–	0.999	1.04	0.84
HOP-62	1.05	0.887	0.937	0.937	0.741	0.926	0.565	0.735	0.404	0.67	0.621	0.483	0.628	0.462	1.05	0.876	–	0.605	0.713	1.09
NCI-H2087	1.08	1.01	1.21	0.913	0.928	0.933	0.714	0.83	0.78	0.723	0.477	0.537	0.544	0.382	0.925	1.13	1.08	0.885	0.787	0.841
NCI-H3122	0.808	0.809	0.847	0.749	0.626	0.656	0.61	1.01	1.01	1.02	0.852	1.07	0.869	0.485	0.994	0.997	0.962	0.49	0.994	1.05

Cell Line	relative viability (Tozasertib + Alpelisib; first compound 0.004 µM)	relative viability (Tozasertib + Alpelisib; first compound 0.01265 µM)	relative viability (Tozasertib + Alpelisib; first compound 0.04 µM)	relative viability (Tozasertib + Alpelisib; first compound 0.1265 µM)	relative viability (Tozasertib + Pictilisib; first compound 0.004 µM)	relative viability (Tozasertib + Pictilisib; first compound 0.04 µM)	relative viability (Tozasertib + Pictilisib; first compound 0.1265 µM)	relative viability (Tozasertib + Bortezomib; first compound 0.004 µM)	relative viability (Tozasertib + Bortezomib; first compound 0.04 µM)	relative viability (Tozasertib + Bortezomib; first compound 0.1265 µM)	relative viability (Tozasertib + Vorinostat; first compound 0.004 µM)	relative viability (Tozasertib + Vorinostat; first compound 0.01265 µM)	relative viability (Tozasertib + Vorinostat; first compound 0.04 µM)	relative viability (Tozasertib + Vorinostat; first compound 0.1265 µM)	relative viability (Tozasertib + Linsitinib; first compound 0.004 µM)	relative viability (Tozasertib + Linsitinib; first compound 0.01265 µM)	relative viability (Tozasertib + Linsitinib; first compound 0.04 µM)	relative viability (Tozasertib + Pictilisib; first compound 0.01265 µM)	relative viability (Tozasertib + Bortezomib; first compound 0.01265 µM)	relative viability (Tozasertib + Linsitinib; first compound 0.1265 µM)
PC-3 [JPC-3]	0.835	1.03	1.03	0.959	0.657	0.732	0.598	0.787	0.881	0.757	0.616	0.51	0.71	0.566	0.902	0.935	0.971	0.724	0.829	0.972
NCI-H2126	0.819	0.748	0.806	0.769	0.505	0.532	0.426	1.12	1.22	1.14	0.797	0.808	0.915	0.781	0.623	0.728	0.825	0.529	1.1	0.716
A-427	1.06	1.1	1.17	0.751	0.676	0.814	0.168	0.983	1.02	0.812	0.858	0.817	0.804	0.489	1.16	0.996	1.12	0.585	0.942	0.826
NCI-H23	0.638	0.578	0.781	0.361	0.566	0.541	0.337	1.06	1.11	0.424	–	0.693	0.599	0.168	0.653	0.519	0.55	0.555	1.24	0.291
RERF-LC-KJ	0.897	0.761	0.914	0.599	0.503	0.597	0.456	0.983	1.12	0.96	–	0.519	0.654	0.478	0.876	0.861	0.907	0.594	1.11	0.777
LOU-NH91	–	0.736	0.731	0.694	0.541	0.513	0.48	0.423	0.485	0.408	0.761	0.889	0.983	0.707	0.573	0.954	1.03	0.526	0.51	0.947
NCI-H1915	1.07	1.04	1.02	0.95	1.06	0.872	0.635	1.07	0.953	0.727	0.505	0.564	0.512	0.439	1.1	1.06	–	0.862	0.924	1.05
NCI-H650	1.23	1.06	–	–	0.917	0.823	0.756	0.663	0.976	0.523	0.448	0.4	0.568	0.389	0.967	0.771	0.754	0.813	0.68	0.513
NCI-H661	0.568	0.735	0.776	0.496	0.461	0.404	0.349	0.922	1.03	0.499	0.912	0.806	0.549	0.312	0.61	0.564	0.497	0.394	0.741	0.402
NCI-H1975	0.747	0.749	0.763	0.586	0.323	0.295	0.238	0.319	–	0.338	0.706	0.706	0.72	0.583	0.961	1.06	1.04	0.278	0.408	0.953
NCI-H727	0.739	0.554	0.639	0.482	0.357	0.391	0.299	1.07	1.02	0.53	1.12	1.12	1.13	0.82	0.258	0.287	0.368	0.354	1.04	0.236
HCC-78	0.38	0.305	0.46	0.241	0.235	0.202	0.171	0.504	–	0.497	0.445	0.386	0.45	0.373	0.661	0.452	0.588	0.203	–	0.439
NCI-H2347	0.996	1.09	0.871	0.963	0.723	0.648	0.389	1.18	1	0.658	0.586	0.643	0.57	0.664	0.978	1	0.964	0.763	0.961	0.914
NCI-H2228	0.806	–	0.556	0.434	0.509	0.326	0.355	1.31	–	0.434	0.668	0.402	0.585	0.49	0.526	–	0.766	–	–	0.557
COR-L23	0.827	0.763	0.585	0.699	0.724	0.783	0.397	0.986	0.888	0.864	0.522	0.403	0.393	0.198	0.99	0.906	0.846	0.756	0.889	0.39
NCI-H838	1.15	0.942	1.12	1.03	0.453	0.427	0.202	0.757	1.32	0.281	0.716	0.713	0.502	0.235	1.07	0.972	1.15	0.425	0.801	0.861
